Laboratory results as given in ChEMBL document CHEMBL4665642, “Anticancer profile of newly synthesized BRAF inhibitors possess 5-(pyrimidin-4-yl)imidazo[2,1-b]thiazole scaffold” (Bioorg Med Chem, 2019).

Tests used:
Type in all cases: functional
Details in all cases: read-out: Activity
NCI-H460 = assay: Cytotoxicity against human NCI-H460 cells assessed as cell viability at 10 uM incubated for 48 hrs by sulforhodamine B assay relative to control
NCI-H23 = assay: Cytotoxicity against human NCI-H23 cells assessed as cell viability at 10 uM incubated for 48 hrs by sulforhodamine B assay relative to control
K562 = assay: Cytotoxicity against human K562 cells assessed as cell viability at 10 uM incubated for 48 hrs by sulforhodamine B assay relative to control
HOP-62 = assay: Cytotoxicity against human HOP-62 cells assessed as cell viability at 10 uM incubated for 48 hrs by sulforhodamine B assay relative to control
HOP-92 = assay: Cytotoxicity against human HOP-92 cells assessed as cell viability at 10 uM incubated for 48 hrs by sulforhodamine B assay relative to control
BT-549 = assay: Cytotoxicity against human BT-549 cells assessed as cell viability at 10 uM incubated for 48 hrs by sulforhodamine B assay relative to control
SW-620 = assay: Cytotoxicity against human SW-620 cells assessed as cell viability at 10 uM incubated for 48 hrs by sulforhodamine B assay relative to control
MOLT-4 = assay: Cytotoxicity against human MOLT-4 cells assessed as cell viability at 10 uM incubated for 48 hrs by sulforhodamine B assay relative to control
PC-3 = assay: Cytotoxicity against human PC-3 cells assessed as cell viability at 10 uM incubated for 48 hrs by sulforhodamine B assay relative to control
IGROV-1 = assay: Cytotoxicity against human IGROV-1 cells assessed as cell viability at 10 uM incubated for 48 hrs by sulforhodamine B assay relative to control
OVCAR-8 = assay: Cytotoxicity against human OVCAR-8 cells assessed as cell viability at 10 uM incubated for 48 hrs by sulforhodamine B assay relative to control
M14 = assay: Cytotoxicity against human M14 cells assessed as cell viability at 10 uM incubated for 48 hrs by sulforhodamine B assay relative to control
U-251 = assay: Cytotoxicity against human U-251 cells assessed as cell viability at 10 uM incubated for 48 hrs by sulforhodamine B assay relative to control
SF-268 = assay: Cytotoxicity against human SF-268 cells assessed as cell viability at 10 uM incubated for 48 hrs by sulforhodamine B assay relative to control
MDA-MB-231 = assay: Cytotoxicity against human MDA-MB-231 cells assessed as cell viability at 10 uM incubated for 48 hrs by sulforhodamine B assay relative to control
SNB-19 = assay: Cytotoxicity against human SNB-19 cells assessed as cell viability at 10 uM incubated for 48 hrs by sulforhodamine B assay relative to control
NCI-H522 = assay: Cytotoxicity against human NCI-H522 cells assessed as cell viability at 10 uM incubated for 48 hrs by sulforhodamine B assay relative to control
CCRF-CEM = assay: Cytotoxicity against human CCRF-CEM cells assessed as cell viability at 10 uM incubated for 48 hrs by sulforhodamine B assay relative to control
OVCAR-3 = assay: Cytotoxicity against human OVCAR-3 cells assessed as cell viability at 10 uM incubated for 48 hrs by sulforhodamine B assay relative to control
Hs-578T = assay: Cytotoxicity against human HS-578T cells assessed as cell viability at 10 uM incubated for 48 hrs by sulforhodamine B assay relative to control
EKVX = assay: Cytotoxicity against human EKVX cells assessed as cell viability at 10 uM incubated for 48 hrs by sulforhodamine B assay relative to control
UACC-62 = assay: Cytotoxicity against human UACC-62 cells assessed as cell viability at 10 uM incubated for 48 hrs by sulforhodamine B assay relative to control
RPMI-8226 = assay: Cytotoxicity against human RPMI-8226 cells assessed as cell viability at 10 uM incubated for 48 hrs by sulforhodamine B assay relative to control
TK-10 = assay: Cytotoxicity against human TK-10 cells assessed as cell viability at 10 uM incubated for 48 hrs by sulforhodamine B assay relative to control
MDA-MB-468 = assay: Cytotoxicity against human MDA-MB-468 cells assessed as cell viability at 10 uM incubated for 48 hrs by sulforhodamine B assay relative to control
A549 = assay: Cytotoxicity against human A549 cells assessed as cell viability at 10 uM incubated for 48 hrs by sulforhodamine B assay relative to control
SN12C = assay: Cytotoxicity against human SN12C cells assessed as cell viability at 10 uM incubated for 48 hrs by sulforhodamine B assay relative to control
HL-60(TB) = assay: Cytotoxicity against human HL-60(TB) cells assessed as cell viability at 10 uM incubated for 48 hrs by sulforhodamine B assay relative to control
COLO 205 = assay: Cytotoxicity against human COLO 205 cells assessed as cell viability at 10 uM incubated for 48 hrs by sulforhodamine B assay relative to control
NCI-H226 = assay: Cytotoxicity against human NCI-H226 cells assessed as cell viability at 10 uM incubated for 48 hrs by sulforhodamine B assay relative to control
NCI/ADR-RES = assay: Cytotoxicity against human NCI/ADR-RES cells assessed as cell viability at 10 uM incubated for 48 hrs by sulforhodamine B assay relative to control
DU-145 = assay: Cytotoxicity against human DU-145 cells assessed as cell viability at 10 uM incubated for 48 hrs by sulforhodamine B assay relative to control
KM12 = assay: Cytotoxicity against human KM12 cells assessed as cell viability at 10 uM incubated for 48 hrs by sulforhodamine B assay relative to control
SNB-75 = assay: Cytotoxicity against human SNB-75 cells assessed as cell viability at 10 uM incubated for 48 hrs by sulforhodamine B assay relative to control
ACHN = assay: Cytotoxicity against human ACHN cells assessed as cell viability at 10 uM incubated for 48 hrs by sulforhodamine B assay relative to control
SR = assay: Cytotoxicity against human SR cells assessed as cell viability at 10 uM incubated for 48 hrs by sulforhodamine B assay relative to control
786-0 = assay: Cytotoxicity against human 786-0 cells assessed as cell viability at 10 uM incubated for 48 hrs by sulforhodamine B assay relative to control
OVCAR-5 = assay: Cytotoxicity against human OVCAR-5 cells assessed as cell viability at 10 uM incubated for 48 hrs by sulforhodamine B assay relative to control
MDA-MB-435 = assay: Cytotoxicity against human MDA-MB-435 cells assessed as cell viability at 10 uM incubated for 48 hrs by sulforhodamine B assay relative to control
OVCAR-4 = assay: Cytotoxicity against human OVCAR-4 cells assessed as cell viability at 10 uM incubated for 48 hrs by sulforhodamine B assay relative to control
SK-MEL-28 = assay: Cytotoxicity against human SK-MEL-28 cells assessed as cell viability at 10 uM incubated for 48 hrs by sulforhodamine B assay relative to control

O=S(=O)(NCCNc1nccc(-c2c(-c3cccc(F)c3)nc3sccn23)n1)c1ccc(C(F)(F)F)cc1
viability at 10 µM (NCI-H460): 94.7%
viability at 10 µM (NCI-H23): 86.8%
viability at 10 µM (K562): 73.1%
viability at 10 µM (HOP-62): 102%
viability at 10 µM (HOP-92): 64%
viability at 10 µM (BT-549): 79.3%
viability at 10 µM (SW-620): 110%
viability at 10 µM (MOLT-4): 57.5%
viability at 10 µM (PC-3): 57%
viability at 10 µM (IGROV-1): 56.6%
viability at 10 µM (OVCAR-8): 84.1%
viability at 10 µM (M14): 91.4%
viability at 10 µM (U-251): 89.8%
viability at 10 µM (SF-268): 77.8%
viability at 10 µM (MDA-MB-231): 92.8%
viability at 10 µM (SNB-19): 94.8%
viability at 10 µM (NCI-H522): 85%
viability at 10 µM (CCRF-CEM): 80.6%
viability at 10 µM (OVCAR-3): 92.4%
viability at 10 µM (Hs-578T): 82.6%
viability at 10 µM (EKVX): 86.5%
viability at 10 µM (UACC-62): 73.3%
viability at 10 µM (RPMI-8226): 83.8%
viability at 10 µM (TK-10): 98.2%
viability at 10 µM (MDA-MB-468): 71.3%
viability at 10 µM (A549): 72.4%
viability at 10 µM (SN12C): 89.7%
viability at 10 µM (HL-60(TB)): 121%
viability at 10 µM (COLO 205): 68.3%
viability at 10 µM (NCI-H226): 82.8%
viability at 10 µM (NCI/ADR-RES): 88.8%
viability at 10 µM (DU-145): 89.2%
viability at 10 µM (KM12): 80.6%
viability at 10 µM (SNB-75): 85%
viability at 10 µM (ACHN): 82.2%
viability at 10 µM (SR): 89.4%
viability at 10 µM (786-0): 82.1%
viability at 10 µM (OVCAR-5): 122%
viability at 10 µM (MDA-MB-435): 71.2%
viability at 10 µM (OVCAR-4): 85.4%
viability at 10 µM (SK-MEL-28): 114%

O=C(NCCNc1nccc(-c2c(-c3cccc(F)c3)nc3sccn23)n1)c1c(F)cccc1F
viability at 10 µM (NCI-H460): 24.8%
viability at 10 µM (NCI-H23): 61.9%
viability at 10 µM (K562): 40.2%
viability at 10 µM (HOP-62): 63.8%
viability at 10 µM (HOP-92): 66.2%
viability at 10 µM (BT-549): 56%
viability at 10 µM (SW-620): 47.3%
viability at 10 µM (MOLT-4): 35.9%
viability at 10 µM (PC-3): 57%
viability at 10 µM (IGROV-1): 12.1%
viability at 10 µM (OVCAR-8): 44.2%
viability at 10 µM (M14): 29.3%
viability at 10 µM (U-251): 49.7%
viability at 10 µM (SF-268): 54.4%
viability at 10 µM (MDA-MB-231): 81.2%
viability at 10 µM (SNB-19): 55.2%
viability at 10 µM (NCI-H522): 42.8%
viability at 10 µM (CCRF-CEM): 42.8%
viability at 10 µM (OVCAR-3): 56.8%
viability at 10 µM (Hs-578T): 53.3%
viability at 10 µM (EKVX): 61.2%
viability at 10 µM (UACC-62): 10.3%
viability at 10 µM (RPMI-8226): 41%
viability at 10 µM (TK-10): 66.6%
viability at 10 µM (MDA-MB-468): 54.3%
viability at 10 µM (A549): 29.1%
viability at 10 µM (SN12C): 45%
viability at 10 µM (HL-60(TB)): 86.4%
viability at 10 µM (COLO 205): 19.2%
viability at 10 µM (NCI-H226): 40.7%
viability at 10 µM (NCI/ADR-RES): 56.9%
viability at 10 µM (DU-145): 50.1%
viability at 10 µM (KM12): 47.7%
viability at 10 µM (SNB-75): 59.5%
viability at 10 µM (ACHN): 26%
viability at 10 µM (SR): 26%
viability at 10 µM (786-0): 44.2%
viability at 10 µM (OVCAR-5): 72.7%
viability at 10 µM (MDA-MB-435): 17.4%
viability at 10 µM (OVCAR-4): 60.9%
viability at 10 µM (SK-MEL-28): 51.1%
